Results as given in patent publication US9067943B2, “[1,2,3]triazolo[4,5-D]pyrimidine derivatives” (priority 2011, dated 2015).
pEC50: −log10 of the molar value. Where two headings read alike, the source gives them in different places.

How the values were obtained:
human CB2 receptors = target: T1, human CB2 receptors (Homo sapiens, UniProt P34972); experiment: cAMP assay; format: cell-based
T1 construct: expressed in transfected cells; host or cells: CHO cells
Method in brief: (§1)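 CHO cells expressing human CB1 or CB2 were preincubated 30 min at 30 °C in Krebs Ringer bicarbonate buffer with 1 mM IBMX, then exposed to compounds for 30 min at 30 °C. cAMP was measured by time-resolved FRET against a cAMP standard curve, and EC50 values were derived.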

human CB1 receptors = target: T2, human CB1 receptors (Homo sapiens, UniProt P21554); experiment: cAMP assay; format: cell-based
T2 construct: expressed in transfected cells; host or cells: CHO cells
T2 sequence (P21554 whole entry): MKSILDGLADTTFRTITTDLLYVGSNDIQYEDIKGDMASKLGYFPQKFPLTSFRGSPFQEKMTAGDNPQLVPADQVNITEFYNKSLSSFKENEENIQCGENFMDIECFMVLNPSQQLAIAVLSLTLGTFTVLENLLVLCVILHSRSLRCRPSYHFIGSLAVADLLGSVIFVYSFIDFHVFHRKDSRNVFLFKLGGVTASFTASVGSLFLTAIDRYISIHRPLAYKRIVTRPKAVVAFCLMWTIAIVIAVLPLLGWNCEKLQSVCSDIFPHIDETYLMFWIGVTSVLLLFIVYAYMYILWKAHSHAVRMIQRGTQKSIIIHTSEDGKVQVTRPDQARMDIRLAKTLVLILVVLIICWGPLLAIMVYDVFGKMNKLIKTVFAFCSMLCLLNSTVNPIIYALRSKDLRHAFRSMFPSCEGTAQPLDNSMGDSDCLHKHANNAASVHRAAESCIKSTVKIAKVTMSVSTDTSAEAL
Method in brief: as §1

[1] = functional cAMP assay, CHO cells expressing human CB2, read-out: human CB2 EC50

T1 sequence (P34972 whole entry): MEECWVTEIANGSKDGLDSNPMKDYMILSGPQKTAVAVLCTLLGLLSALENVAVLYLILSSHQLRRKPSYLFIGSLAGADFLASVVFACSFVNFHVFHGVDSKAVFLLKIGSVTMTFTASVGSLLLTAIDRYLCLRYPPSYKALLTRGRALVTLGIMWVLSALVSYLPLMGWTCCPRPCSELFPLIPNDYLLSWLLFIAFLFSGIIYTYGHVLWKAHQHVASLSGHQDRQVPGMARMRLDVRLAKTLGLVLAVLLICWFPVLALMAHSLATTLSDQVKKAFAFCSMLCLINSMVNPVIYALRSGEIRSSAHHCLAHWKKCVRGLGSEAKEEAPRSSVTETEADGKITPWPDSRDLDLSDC

SMILES | pEC50 (human CB2 receptors; [1]) | pEC50 (human CB1 receptors) | pEC50 (human CB2 receptors)
O[C@H]1CCN(c2nc(OCC(F)(F)F)nc3nn(Cc4ccccc4Cl)nc23)C1 [Example 109, (S)-1-[2-(2-Chloro-benzyl)-5-(2,2,2-trifluoro-ethoxy)-2H-[1,2,3]triazolo[4,5-d]pyrimidin-7-yl]-pyrrolidin-3-ol] | 6.97 | < 5.00 | 
O[C@H]1CCN(c2nc(OCC(F)(F)F)nc3nn(Cc4ccccc4C(F)(F)F)nc23)C1 [Example 110, (S)-1-[5-(2,2,2-Trifluoro-ethoxy)-2-(2-trifluoromethyl-benzyl)-2H-[1,2,3]triazolo[4,5-d]pyrimidin-7-yl]-pyrrolidin-3-ol] |  | < 5.00 | 7.22
CC(C)Oc1nc(N2CC[C@H](O)C2)c2nn(Cc3ccccc3Cl)nc2n1 [Example 111, (S)-1-[2-(2-Chloro-benzyl)-5-isopropoxy-2H-[1,2,3]triazolo[4,5-d]pyrimidin-7-yl]-pyrrolidin-3-ol] | 6.58 | < 5.00 | 
Cn1nnnc1Cn1nc2nc(OCC(C)(C)C)nc(N3CCC(F)(F)C3)c2n1 [Example 112, 7-(3,3-Difluoro-pyrrolidin-1-yl)-5-(2,2-dimethyl-propoxy)-2-(1-methyl-1H-tetrazol-5-ylmethyl)-2H-[1,2,3]triazolo[4,5-d]pyrimidine] |  | < 5.00 | 7.51
Cn1nnnc1Cn1nc2nc(C(C)(C)C)nc(N3CC[C@@H](O)C3)c2n1 [Example 113, (R)-1-[5-tert-Butyl-2-(1-methyl-1H-tetrazol-5-ylmethyl)-2H-[1,2,3]triazolo[4,5-d]pyrimidin-7-yl]-pyrrolidin-3-ol] |  | < 5.00 | 5.78
Cn1nnnc1Cn1nc2nc(C(C)(C)C)nc(N3CCC(O)C3)c2n1 (centres unmarked) [Example 114, 1-[5-tert-Butyl-2-(1-methyl-1H-tetrazol-5-ylmethyl)-2H-[1,2,3]triazolo[4,5-d]pyrimidin-7-yl]-pyrrolidin-3-ol] |  | < 5.00 | 6.78
C[C@H](Oc1nc(N2CCC(F)(F)C2)c2nn(Cc3ccccc3C(F)(F)F)nc2n1)C(F)(F)F [Example 115, 7-(3,3-Difluoro-pyrrolidin-1-yl)-2-(2-trifluoromethyl-benzyl)-5-((S)-2,2,2-trifluoro-1-methyl-ethoxy)-2H-[1,2,3]triazolo[4,5-d]pyrimidine] |  | < 5.00 | 7.51
C[C@H](Oc1nc(N2CCC(F)(F)C2)c2nn(Cc3ccccc3S(C)(=O)=O)nc2n1)C(F)(F)F [Example 116, 7-(3,3-Difluoro-pyrrolidin-1-yl)-2-(2-methanesulfonyl-benzyl)-5-((S)-2,2,2-trifluoro-1-methyl-ethoxy)-2H-[1,2,3]triazolo[4,5-d]pyrimidine] |  | < 5.00 | 7.64
C[C@H](Oc1nc(N2CCC(F)(F)C2)c2nn(Cc3ncccc3Cl)nc2n1)C(F)(F)F [Example 117, 2-(3-Chloro-pyridin-2-ylmethyl)-7-(3,3-difluoro-pyrrolidin-1-yl)-5-((S)-2,2,2-trifluoro-1-methyl-ethoxy)-2H-[1,2,3]triazolo[4,5-d]pyrimidine] |  | < 5.00 | 7.67
Cc1nnc(Cn2nc3nc(O[C@@H](C)C(F)(F)F)nc(N4CCC(F)(F)C4)c3n2)o1 [Example 118, 7-(3,3-Difluoro-pyrrolidin-1-yl)-2-(5-methyl-[1,3,4]oxadiazol-2-ylmethyl)-5-((S)-2,2,2-trifluoro-1-methyl-ethoxy)-2H-[1,2,3]triazolo[4,5-d]pyrimidine] | 6.36 | < 5.00 | 
Cc1noc(Cn2nc3nc(O[C@@H](C)C(F)(F)F)nc(N4CCC(F)(F)C4)c3n2)n1 [Example 119, 7-(3,3-Difluoro-pyrrolidin-1-yl)-2-(3-methyl-[1,2,4]oxadiazol-5-ylmethyl)-5-((S)-2,2,2-trifluoro-1-methyl-ethoxy)-2H-[1,2,3]triazolo[4,5-d]pyrimidine] | 6.36 | < 5.00 | 
C[C@H](Oc1nc(N2CCC(F)(F)C2)c2nn(Cc3nnnn3C)nc2n1)C(F)(F)F [Example 120, 7-(3,3-Difluoro-pyrrolidin-1-yl)-2-(1-methyl-1H-tetrazol-5-ylmethyl)-5-((S)-2,2,2-trifluoro-1-methyl-ethoxy)-2H-[1,2,3]triazolo[4,5-d]pyrimidine] |  | < 5.00 | 7.16
Cc1nonc1Cn1nc2nc(O[C@@H](C)C(F)(F)F)nc(N3CCC(F)(F)C3)c2n1 [Example 121, 7-(3,3-Difluoro-pyrrolidin-1-yl)-2-(4-methyl-furazan-3-ylmethyl)-5-((S)-2,2,2-trifluoro-1-methyl-ethoxy)-2H-[1,2,3]triazolo[4,5-d]pyrimidine] |  | < 5.00 | 8.12
C[C@H](Oc1nc(N2CCC(F)(F)C2)c2nn(CCC(F)(F)F)nc2n1)C(F)(F)F [Example 122, 7-(3,3-Difluoro-pyrrolidin-1-yl)-5-((S)-2,2,2-trifluoro-1-methyl-ethoxy)-2-(3,3,3-trifluoro-propyl)-2H-[1,2,3]triazolo[4,5-d]pyrimidine] |  | < 5.00 | 8.08
C[C@H](Oc1nc(N2CCC(F)(F)C2)c2nn(Cc3nnnn3C3CC3)nc2n1)C(F)(F)F [Example 123, 2-(1-Cyclopropyl-1H-tetrazol-5-ylmethyl)-7-(3,3-difluoro-pyrrolidin-1-yl)-5-((S)-2,2,2-trifluoro-1-methyl-ethoxy)-2H-[1,2,3]triazolo[4,5-d]pyrimidine] |  | < 5.00 | 7.31
CC(C)(C)c1nc(N2CC[C@](C)(O)C2)c2nn(Cc3ccccc3Cl)nc2n1 [Example 124-a, (S)-1-[5-tert-Butyl-2-(2-chloro-benzyl)-2H-[1,2,3]triazolo[4,5-d]pyrimidin-7-yl]-3-methyl-pyrrolidin-3-ol] |  | < 5.00 | 8.60
CC(C)(C)c1nc(N2CC[C@@](C)(O)C2)c2nn(Cc3ccccc3Cl)nc2n1 [Example 124-b, (R)-1-[5-tert-Butyl-2-(2-chloro-benzyl)-2H-[1,2,3]triazolo[4,5-d]pyrimidin-7-yl]-3-methyl-pyrrolidin-3-ol] |  | < 5.00 | 8.17
CC(C)(C)c1nc(N2CC[C@](C)(O)C2)c2nn(Cc3ccccc3C(F)(F)F)nc2n1 [Example 125-a, (S)-1-[5-tert-Butyl-2-(2-trifluoromethyl-benzyl)-2H-[1,2,3]triazolo[4,5-d]pyrimidin-7-yl]-3-methyl-pyrrolidin-3-ol] |  | 6.40 | 9.40
CC(C)(C)c1nc(N2CC[C@@](C)(O)C2)c2nn(Cc3ccccc3C(F)(F)F)nc2n1 [Example 125-b, (R)-1-[5-tert-Butyl-2-(2-trifluoromethyl-benzyl)-2H-[1,2,3]triazolo[4,5-d]pyrimidin-7-yl]-3-methyl-pyrrolidin-3-ol] |  | < 5.00 | 8.43
CC(C)(C)c1nc(N2CC[C@](C)(O)C2)c2nn(Cc3ccccc3S(C)(=O)=O)nc2n1 [Example 126-a, (S)-1-[5-tert-Butyl-2-(2-methanesulfonyl-benzyl)-2H-[1,2,3]triazolo[4,5-d]pyrimidin-7-yl]-3-methyl-pyrrolidin-3-ol] |  | < 5.00 | 7.97
CC(C)(C)c1nc(N2CC[C@@](C)(O)C2)c2nn(Cc3ccccc3S(C)(=O)=O)nc2n1 [Example 126-b, (R)-1-[5-tert-Butyl-2-(2-methanesulfonyl-benzyl)-2H-[1,2,3]triazolo[4,5-d]pyrimidin-7-yl]-3-methyl-pyrrolidin-3-ol] |  | < 5.00 | 7.62
CC(C)(C)c1nc(N2CC[C@](C)(O)C2)c2nn(Cc3ncccc3Cl)nc2n1 [Example 127-a, (S)-1-[5-tert-Butyl-2-(3-chloro-pyridin-2-ylmethyl)-2H-[1,2,3]triazolo[4,5-d]pyrimidin-7-yl]-3-methyl-pyrrolidin-3-ol] |  | 6.12 | 8.29
CC(C)(C)c1nc(N2CC[C@@](C)(O)C2)c2nn(Cc3ncccc3Cl)nc2n1 [Example 127-b, (R)-1-[5-tert-Butyl-2-(3-chloro-pyridin-2-ylmethyl)-2H-[1,2,3]triazolo[4,5-d]pyrimidin-7-yl]-3-methyl-pyrrolidin-3-ol] |  | 6.22 | 7.92
Cc1nnc(Cn2nc3nc(C(C)(C)C)nc(N4CC[C@](C)(O)C4)c3n2)o1 [Example 128-a, (S)-1-[5-tert-Butyl-2-(5-methyl-[1,3,4]oxadiazol-2-ylmethyl)-2H-[1,2,3]triazolo[4,5-d]pyrimidin-7-yl]-3-methyl-pyrrolidin-3-ol] |  | < 5.00 | 7.15
Cc1nnc(Cn2nc3nc(C(C)(C)C)nc(N4CC[C@@](C)(O)C4)c3n2)o1 [Example 128-b, (R)-1-[5-tert-Butyl-2-(5-methyl-[1,3,4]oxadiazol-2-ylmethyl)-2H-[1,2,3]triazolo[4,5-d]pyrimidin-7-yl]-3-methyl-pyrrolidin-3-ol] |  | < 5.00 | 6.10
Cc1noc(Cn2nc3nc(C(C)(C)C)nc(N4CC[C@](C)(O)C4)c3n2)n1 [Example 129-a, (S)-1-[5-tert-Butyl-2-(3-methyl-[1,2,4]oxadiazol-5-ylmethyl)-2H-[1,2,3]triazolo[4,5-d]pyrimidin-7-yl]-3-methyl-pyrrolidin-3-ol] | 6.71 | < 5.00 | 
Cc1noc(Cn2nc3nc(C(C)(C)C)nc(N4CC[C@@](C)(O)C4)c3n2)n1 [Example 129-b, (R)-1-[5-tert-Butyl-2-(3-methyl-[1,2,4]oxadiazol-5-ylmethyl)-2H-[1,2,3]triazolo[4,5-d]pyrimidin-7-yl]-3-methyl-pyrrolidin-3-ol] | 6.50 | < 5.00 | 
Cn1nnnc1Cn1nc2nc(C(C)(C)C)nc(N3CC[C@](C)(O)C3)c2n1 [Example 130-a, (S)-1-[5-tert-Butyl-2-(1-methyl-1H-tetrazol-5-ylmethyl)-2H-[1,2,3]triazolo[4,5-d]pyrimidin-7-yl]-3-methyl-pyrrolidin-3-ol] | 6.76 | < 5.00 | 
